The record followed here is patent publication US11312723B2, “Pyranopyrazole and pyrazolopyridine immunomodulators for treatment of autoimmune diseases” (The Rockefeller University, priority 2017, dated 2022).

A value given as a limit tells only on which side of the number the result lay.

This test has as its target Human FXIIa (Homo sapiens (Human), UniProt P00748). Description: Factor XIIa (FXIIa) inhibitory activity, chromogenic substrate (Pefachrome XIIa) cleavage. It counts as biochemical. Conditions: 10 min pre-incubation, Pefachrome XIIa 400 μM. On the procedure:
Factor XIIa (FXIIa) Inhibitory Activity:
In a 96-well clear bottom plate, 80 μl of assay buffer was added to each well. Assay buffer consists of 0.5× Hank's Balanced Salt Solution (Invitrogen), buffered with 25 mM HEPES pH 7.4 (Invitrogen) and 0.5× Tris-buffered saline with Tween-20 0.05% (Santa Cruz Biotechnology). Test compounds were first dissolved in DMSO (Sigma) and then 4 μl were added to test wells containing assay buffer. Serial dilutions using an automated multi-channel pipette were used to generate a concentration range of approximately 1-100 μM. Human FXIIa (Enzyme Research Labs) was diluted in assay buffer to a final concentration of 12.5 nM. 80 μl of this enzyme solution was added to the assay wells. The enzyme/compound mixtures were incubated for 10 minutes at room temperature. Chromogenic substrate (Pefachrome XIIa; Enzyme Research Labs) was added to assay wells at a final concentration of 400 μM. The assay plate was spun for 1 minute at 1500 g and then read at 37° C. in a SpectraMax M2 plate reader (λ=405 nm). Activity was quantified as the rate of change in absorbance, which corresponds to the rate of substrate cleavage. IC50 values were determined as the concentration of inhibitor that produced 50% of the rate of change of control wells without any inhibitor. For compounds with activity <1 μM, the assay was repeated with a lower concentration range, typically from 10-1000 nM.

Sequence of Human FXIIa (P00748 373-615): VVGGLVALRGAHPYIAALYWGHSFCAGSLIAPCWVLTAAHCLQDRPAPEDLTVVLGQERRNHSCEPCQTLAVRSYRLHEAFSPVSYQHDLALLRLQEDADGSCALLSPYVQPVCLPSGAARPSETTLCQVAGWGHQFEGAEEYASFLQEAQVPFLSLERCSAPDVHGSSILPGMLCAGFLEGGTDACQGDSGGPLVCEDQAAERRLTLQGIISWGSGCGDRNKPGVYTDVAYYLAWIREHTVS
Sequence of Human FXIIa (P00748 20-372 partner): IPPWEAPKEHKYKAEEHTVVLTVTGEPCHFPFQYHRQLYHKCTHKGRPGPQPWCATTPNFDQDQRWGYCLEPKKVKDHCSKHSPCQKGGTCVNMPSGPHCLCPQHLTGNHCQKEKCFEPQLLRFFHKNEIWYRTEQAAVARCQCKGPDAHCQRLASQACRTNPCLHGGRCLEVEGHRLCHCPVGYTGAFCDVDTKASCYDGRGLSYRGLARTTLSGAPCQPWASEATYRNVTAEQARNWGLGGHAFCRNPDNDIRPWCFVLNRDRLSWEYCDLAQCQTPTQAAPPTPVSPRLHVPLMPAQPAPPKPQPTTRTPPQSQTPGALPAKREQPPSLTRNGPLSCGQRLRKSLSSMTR

The term IC50 denotes the concentration at which inhibition is half-maximal. A higher IC50 goes with weaker potency. In the case of `CCc1ccc2c(c1)C(C(=O)n1nc(N)c3c1CN(S(C)(=O)=O)CC3)CCN2` (centres unmarked) [Example 31, (3-amino-6-(methylsulfonyl)-4,5,6,7-tetrahydropyrazolo[3,4-c]pyridin-1-yl)(6-ethyl-1,2,3,4-tetrahydroquinolin-4-yl)methanone], the IC50 came out at 40 µM.
As for `CS(=O)(=O)N1CCc2c(N)nn(C(=O)C3CCNc4c(F)cccc43)c2C1` (centres unmarked) [Example 38, (3-amino-6-(methylsulfonyl)-4,5,6,7-tetrahydropyrazolo[3,4-c]pyridin-1-yl)(8-fluoro-1,2,3,4-tetrahydroquinolin-4-yl)methanone], the figure is 70 µM; as for `CS(=O)(=O)N1CCc2c(N)nn(C(=O)C3CCNc4ncccc43)c2C1` (centres unmarked) [Example 42, (3-amino-6-(methylsulfonyl)-4,5,6,7-tetrahydropyrazolo[3,4-c]pyridin-1-yl)(1,2,3,4-tetrahydro-1,8-naphthyridin-4-yl)methanone], over 80 µM.
As for `CS(=O)(=O)N1CCc2c(nn(C(=O)C3CC(=O)Nc4ccc(F)cc43)c2N)C1` (centres unmarked) [Example 43, 4-(3-amino-6-(methylsulfonyl)-4,5,6,7-tetrahydro-2H-pyrazolo[3,4-c]pyridine-2-carbonyl)-6-fluoro-3,4-dihydroquinolin-2(1H)-one], the figure is 4 µM.
As for `CC(C)c1ccc2c(c1)C(C(=O)n1nc(N)c3c1CN(S(C)(=O)=O)CC3)CCN2` (centres unmarked) [Example 46, (3-amino-6-(methylsulfonyl)-4,5,6,7-tetrahydropyrazolo[3,4-c]pyridin-1-yl)(6-isopropyl-1,2,3,4-tetrahydroquinolin-4-yl)methanone], the figure is over 80 µM.
Turning to `CC(=O)Nc1ccc2c(c1)C(C(=O)n1nc3c(c1N)CCN(S(C)(=O)=O)C3)CCN2` (centres unmarked) [Example 47, N-(4-(3-amino-6-(methylsulfonyl)-4,5,6,7-tetrahydro-2H-pyrazolo[3,4-c]pyridine-2-carbonyl)-1,2,3,4-tetrahydroquinolin-6-yl)acetamide], it took 8.5 µM to reach half-maximal inhibition (IC50).
Regarding `CC(=O)Nc1ccc2c(c1)C(C(=O)n1nc(N)c3c1CN(S(C)(=O)=O)CC3)CCN2` (centres unmarked) [Example 48, N-(4-(3-amino-6-(methylsulfonyl)-4,5,6,7-tetrahydro-1H-pyrazolo[3,4-c]pyridine-1-carbonyl)-1,2,3,4-tetrahydroquinolin-6-yl)acetamide], the IC50 was over 30 µM.
As for `CS(=O)(=O)N1CCc2c(N)nn(C(=O)C3CCNc4ccc(-c5ccccc5)cc43)c2C1` (centres unmarked) [Example 50, (3-amino-6-(methylsulfonyl)-4,5,6,7-tetrahydropyrazolo[3,4-c]pyridin-1-yl)(6-phenyl-1,2,3,4-tetrahydroquinolin-4-yl)methanone], the figure is over 80 µM; as for `Cc1cc(F)cc2c1NCCC2C(=O)n1nc(N)c2c1CN(S(C)(=O)=O)CC2` (centres unmarked) [Example 52, (3-amino-6-(methylsulfonyl)-4,5,6,7-tetrahydropyrazolo[3,4-c]pyridin-1-yl)(6-fluoro-8-methyl-1,2,3,4-tetrahydroquinolin-4-yl)methanone], 32 µM; as for `CCc1cc(C)c2c(c1)C(C(=O)n1nc(N)c3c1CN(S(C)(=O)=O)CC3)CCN2` (centres unmarked) [Example 56, (3-amino-6-(methylsulfonyl)-4,5,6,7-tetrahydropyrazolo[3,4-c]pyridin-1-yl)(6-ethyl-8-methyl-1,2,3,4-tetrahydroquinolin-4-yl)methanone], over 65 µM.
The value for `CS(=O)(=O)N1CCc2c(N)nn(C(=O)C3CCNc4c(Cl)cccc43)c2C1` (centres unmarked) [Example 58, (3-amino-6-(methylsulfonyl)-4,5,6,7-tetrahydropyrazolo[3,4-c]pyridin-1-yl)(8-chloro-1,2,3,4-tetrahydroquinolin-4-yl)methanone] was 60 µM; that for `COc1cccc2c1NCCC2C(=O)n1nc(N)c2c1CN(S(C)(=O)=O)CC2` (centres unmarked) [Example 62, (3-amino-6-(methylsulfonyl)-4,5,6,7-tetrahydropyrazolo[3,4-c]pyridin-1-yl)(8-methoxy-1,2,3,4-tetrahydroquinolin-4-yl)methanone] was over 65 µM.
The value for `CCc1cccc2c1NCCC2C(=O)n1nc2c(c1N)CCN(S(C)(=O)=O)C2` (centres unmarked) [Example 65, (3-amino-6-(methylsulfonyl)-4,5,6,7-tetrahydropyrazolo[3,4-c]pyridin-2-yl)(8-ethyl-1,2,3,4-tetrahydroquinolin-4-yl)methanone] was 0.09 µM; that for `CCc1cccc2c1NCCC2C(=O)n1nc(N)c2c1CN(S(C)(=O)=O)CC2` (centres unmarked) [Example 66, (3-amino-6-(methylsulfonyl)-4,5,6,7-tetrahydropyrazolo[3,4-c]pyridin-1-yl)(8-ethyl-1,2,3,4-tetrahydroquinolin-4-yl)methanone] was over 100 µM; that for `CS(=O)(=O)N1CCc2c(N)nn(C(=O)C3CCNc4c3cccc4C(F)(F)F)c2C1` (centres unmarked) [Example 68, (3-amino-6-(methylsulfonyl)-4,5,6,7-tetrahydropyrazolo[3,4-c]pyridin-1-yl)(8-(trifluoromethyl)-1,2,3,4-tetrahydroquinolin-4-yl)methanone] was over 90 µM.
With `Nc1nn(C(=O)C2CCNc3c(Cl)cccc32)c2c1CCNC2` (centres unmarked) [Example 71, (3-amino-4,5,6,7-tetrahydropyrazolo[3,4-c]pyridin-1-yl)(8-chloro-1,2,3,4-tetrahydroquinolin-4-yl)methanone], the IC50 amounted to 5 µM. That is a single-digit micromolar value.
The value for `Nc1nn(C(=O)C2CCNc3ccc(F)cc32)c2c1COCC2` (centres unmarked) [Example 75, (3-amino-6,7-dihydropyrano[4,3-c]pyrazol-1(4H)-yl)(6-fluoro-1,2,3,4-tetrahydroquinolin-4-yl)methanone] was 25 µM; that for `CN1CCc2nn(C(=O)C3CCNc4ccccc43)c(N)c2C1` (centres unmarked) [Example 86, (3-amino-5-methyl-4,5,6,7-tetrahydro-pyrazolo[4,3-c]pyridin-2-yl)(1,2,3,4-tetrahydro-quinolin-4-yl)methanone] was 1.25 µM.
As for `COC(=O)N1CCc2c(c(N)nn2C(=O)C2CCNc3ccccc32)C1` (centres unmarked) [Example 88, methyl 3-amino-1-(1,2,3,4-tetrahydro-quinoline-4-carbonyl)-6,7-dihydro-1H-pyrazolo[4,3-c]pyridine-5(4H)-carboxylate], the figure is 80 µM; as for `Cc1cc2c(C(=O)n3nc(N)c4c3CN(S(C)(=O)=O)CC4)cccc2[nH]1` [Example 102, (3-amino-6-(methylsulfonyl)-4,5,6,7-tetrahydro-pyrazolo[3,4-c]pyridin-1-yl)(2-methyl-1H-indol-4-yl)methanone], 1.2 µM; as for `COC(=O)N1CCc2c(N)nn(C(=O)C3CCNc4ccccc43)c2C1` (centres unmarked) [Example 115, methyl 3-amino-1-(1,2,3,4-tetrahydro-quinoline-4-carbonyl)-4,5-dihydro-1H-pyrazolo[3,4-c]pyridine-6(7H)-carboxylate], 30 µM.
On to `CS(=O)(=O)N1CCc2c(N)nn(C(=O)C3CCCc4[nH]c(Cl)cc43)c2C1` (centres unmarked) [Example 133, (3-amino-6-(methylsulfonyl)-4,5,6,7-tetrahydro-pyrazolo[3,4-c]pyridin-1-yl)(2-chloro-4,5,6,7-tetrahydro-1H-indol-4-yl)methanone], for which half-maximal inhibition (IC50) required 45 µM.
As for `CC(C)S(=O)(=O)N1CCc2c(N)nn(C(=O)C3CCNc4ccc(F)cc43)c2C1` (centres unmarked) [Example 137, (3-amino-6-(isopropyl-sulfonyl)-4,5,6,7-tetrahydro-pyrazolo[3,4-c]pyridin-1-yl)(6-fluoro-1,2,3,4-tetrahydro-quinolin-4-yl)methanone], the figure is 7 µM; as for `CC(C)(C)S(=O)(=O)N1CCc2c(N)nn(C(=O)C3CCNc4ccc(F)cc43)c2C1` (centres unmarked) [Example 139, (3-amino-6-(tert-butylsulfonyl)-4,5,6,7-tetrahydro-pyrazolo[3,4-c]pyridin-1-yl)(6-fluoro-1,2,3,4-tetrahydro-quinolin-4-yl)methanone], 55 µM.
As for `Nc1nn(C(=O)C2CCNc3ccc(F)cc32)c2c1CCN(S(=O)(=O)CF)C2` (centres unmarked) [Example 141, (3-amino-6-(fluoromethyl-sulfonyl)-4,5,6,7-tetrahydro-pyrazolo(3,4-c]pyridin-1-yl)(6-fluoro-1,2,3,4-tetrahydro-quinolin-4-yl)methanone], the figure is 31 µM.
Turning to `Nc1nn(C(=O)C2CCNc3ccc(F)cc32)c2c1CCN(S(=O)(=O)CC(F)F)C2` (centres unmarked) [Example 143, (3-amino-6-(2,2-difluoroethyl-sulfonyl)-4,5,6,7-tetrahydro-pyrazolo[3,4-c]pyridin-1-yl)(6-fluoro-1,2,3,4-tetrahydro-quinolin-4-yl)methanone], 17 µM corresponded to half-maximal inhibition (IC50).
The value for `Nc1nn(C(=O)C2CCNc3ccc(F)cc32)c2c1CCNC2` (centres unmarked) [Example 148, (3-amino-4,5,6,7-tetrahydro-pyrazolo[3,4-c]pyridin-1-yl)(6-fluoro-1,2,3,4-tetrahydro-quinolin-4-yl)methanone] was 20 µM; that for `CCCN1CCc2c(N)nn(C(=O)C3CCNc4ccc(F)cc43)c2C1` (centres unmarked) [Example 150, (3-amino-6-propyl-4,5,6,7-tetrahydro-pyrazolo[3,4-c]pyridin-1-yl)(6-fluoro-1,2,3,4-tetrahydro-quinolin-4-yl)methanone] was over 70 µM; that for `CC(C)CN1CCc2c(N)nn(C(=O)C3CCNc4ccc(F)cc43)c2C1` (centres unmarked) [Example 154, (3-amino-6-isobutyl-4,5,6,7-tetrahydro-pyrazolo[3,4-c]pyridin-1-yl)(6-fluoro-1,2,3,4-tetrahydro-quinolin-4-yl)methanone] was 18 µM.
